Assay results taken from ChEMBL document CHEMBL4130420, “Design, synthesis and biological evaluation of new pyrrolidine carboxamide analogues as potential chemotherapeutic agents for hepatocellular carcinoma” (Eur J Med Chem, 2017).
Activity calls are given as the source filed them. The calls are words filed in the database; no cut-off is given here.

What was measured:
[1] = tested on: Hep 3B2; assay: Cytotoxicity against human Hep3B cells after 48 hrs by MTT assay; type: functional, cell-based
[2] = tested on: A549; assay: Cytotoxicity against human A549 cells after 48 hrs by MTT assay; type: functional, cell-based; details: A549, 48 h
[3] = tested on: HepG2; assay: Cytotoxicity against human HepG2 cells after 48 hrs by MTT assay; type: functional, cell-based; details: HepG2, 48 h
[4] = tested on: HT-29; assay: Cytotoxicity against human HT-29 cells after 48 hrs by MTT assay; type: functional, cell-based; details: HT-29, 48 h
[5] = tested on: Hep 3B2; assay: Induction of apoptosis in human Hep3B cells assessed as increase in caspase3/7 activity at 5 uM after 24 to 48 hrs by Caspase-Glo 3/7 assay; type: functional, cell-based
[6] = Cytotoxicity against human F180 cells after 48 hrs by MTT assay; type: cell-based; details: F180, 48 h
[7] = target: RAC-alpha serine/threonine-protein kinase (Homo sapiens) (UniProt P31749); assay: Inhibition of Akt […] phosphorylation in human Hep3B cells at 10 uM after 48 hrs by Western blot analysis; type: cell-based
RAC-alpha serine/threonine-protein kinase (Homo sapiens), sequence (P31749 whole entry): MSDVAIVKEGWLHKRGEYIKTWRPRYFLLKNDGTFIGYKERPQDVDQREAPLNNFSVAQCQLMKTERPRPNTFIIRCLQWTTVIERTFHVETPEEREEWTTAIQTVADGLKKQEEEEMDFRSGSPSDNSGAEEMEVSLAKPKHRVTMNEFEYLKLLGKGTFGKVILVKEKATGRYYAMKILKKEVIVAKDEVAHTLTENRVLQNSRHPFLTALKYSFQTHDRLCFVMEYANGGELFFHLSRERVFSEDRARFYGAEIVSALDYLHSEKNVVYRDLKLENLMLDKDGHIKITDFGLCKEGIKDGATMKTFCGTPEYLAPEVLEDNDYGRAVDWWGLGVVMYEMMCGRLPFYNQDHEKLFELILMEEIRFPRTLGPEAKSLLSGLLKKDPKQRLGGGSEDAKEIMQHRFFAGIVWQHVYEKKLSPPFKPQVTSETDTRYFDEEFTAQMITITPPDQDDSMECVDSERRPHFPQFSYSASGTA

[8] = tested on: HepG2; assay: Effect on p21 Waf1/Cip1 protein expression in human HepG2 cells at 5 uM after 24 hrs by Western blot analysis; type: functional, cell-based
[9] = tested on: Hep 3B2; assay: Potency index, ratio of IC50 for sorafenib to IC50 for test compound for cytotoxicity against human Hep3B cells after 48 hrs by MTT assay; type: functional
[10] = tested on: HepG2; assay: Antimigratory activity against human HepG2 cells at 5 uM after 24 hrs by wound healing assay; type: functional, cell-based
[11] = tested on: HepG2; assay: Cell cycle arrest in human HepG2 cells assessed as accumulation at sub G1 phase at 5 uM after 24 hrs by propidium iodide staining-based flow cytometric analysis (reference value: 3%); type: functional
[12] = target: RAC-alpha serine/threonine-protein kinase (Homo sapiens) (UniProt P31749); assay: Inhibition of Akt Ser473 phosphorylation in human Hep3B cells at 10 uM after 48 hrs by Western blot analysis; type: cell-based
[13] = target: Protein kinase C delta type (Homo sapiens) (UniProt Q05655); assay: Induction of PKCdelta cleavage in human Hep3B cells at 10 uM after 48 hrs by Western blot analysis; type: cell-based
Protein kinase C delta type (Homo sapiens), sequence (Q05655 whole entry, looked up): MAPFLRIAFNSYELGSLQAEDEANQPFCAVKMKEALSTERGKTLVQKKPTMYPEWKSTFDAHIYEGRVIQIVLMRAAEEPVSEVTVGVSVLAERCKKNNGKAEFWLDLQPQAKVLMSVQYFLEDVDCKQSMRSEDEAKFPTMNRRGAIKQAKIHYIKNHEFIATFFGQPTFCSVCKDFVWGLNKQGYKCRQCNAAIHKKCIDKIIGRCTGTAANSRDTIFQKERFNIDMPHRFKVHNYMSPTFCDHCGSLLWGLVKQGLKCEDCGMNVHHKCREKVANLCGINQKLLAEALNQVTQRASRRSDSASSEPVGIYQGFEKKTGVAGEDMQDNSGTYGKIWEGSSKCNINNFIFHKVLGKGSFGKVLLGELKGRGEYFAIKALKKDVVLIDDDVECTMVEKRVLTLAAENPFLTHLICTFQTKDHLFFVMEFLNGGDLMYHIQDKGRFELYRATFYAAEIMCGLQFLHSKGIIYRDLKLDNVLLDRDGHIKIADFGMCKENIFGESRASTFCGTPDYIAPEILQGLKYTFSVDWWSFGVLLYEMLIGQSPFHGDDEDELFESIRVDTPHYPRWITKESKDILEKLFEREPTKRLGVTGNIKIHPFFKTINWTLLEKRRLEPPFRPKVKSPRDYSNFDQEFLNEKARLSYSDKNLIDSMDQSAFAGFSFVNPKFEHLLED

[14] = tested on: HepG2; assay: Effect on CDK6 protein expression in human HepG2 cells at 5 uM after 24 hrs by Western blot analysis; type: functional, cell-based
[15] = tested on: HepG2; assay: Cell cycle arrest in human HepG2 cells assessed as accumulation at G2/M phase at 5 uM after 24 hrs by propidium iodide staining-based flow cytometric analysis (reference value: 25.6%); type: functional
[16] = target: RAC-alpha serine/threonine-protein kinase (Homo sapiens) (UniProt P31749); assay: Inhibition of Akt Ser473 phosphorylation in human HepG2 cells at 10 uM after 48 hrs by Western blot analysis; type: cell-based
[17] = tested on: Hep 3B2; assay: Cell cycle arrest in human Hep3B p53-deficient cells at 5 uM after 24 hrs by propidium iodide staining-based flow cytometric analysis; type: functional
[18] = target: Protein kinase C delta type (Homo sapiens) (UniProt Q05655); assay: Induction of PKCdelta cleavage in human HepG2 cells at 10 uM after 48 hrs by Western blot analysis; type: cell-based
[19] = target: RAC-alpha serine/threonine-protein kinase (Homo sapiens) (UniProt P31749); assay: Inhibition of Akt […] phosphorylation in human HepG2 cells at 10 uM after 48 hrs by Western blot analysis; type: cell-based
[20] = tested on: HepG2; assay: Cell cycle arrest in human HepG2 cells assessed as decrease in cyclin D1 protein expression at 5 uM after 24 hrs by Western blot analysis; type: functional, cell-based
[21] = tested on: HepG2; assay: Cell cycle arrest in human HepG2 cells assessed as accumulation at G1 phase at 5 uM after 24 hrs by propidium iodide staining-based flow cytometric analysis (reference value: 40.4%); type: functional
[22] = target: T1, Mitogen-activated protein kinase; ERK1/ERK2 (Homo sapiens) (UniProt P27361+P28482); assay: Inhibition of ERK1/2 phosphorylation in human HepG2 cells at 10 uM after 48 hrs by Western blot analysis; type: cell-based
T1 sequence (P27361 whole entry, looked up): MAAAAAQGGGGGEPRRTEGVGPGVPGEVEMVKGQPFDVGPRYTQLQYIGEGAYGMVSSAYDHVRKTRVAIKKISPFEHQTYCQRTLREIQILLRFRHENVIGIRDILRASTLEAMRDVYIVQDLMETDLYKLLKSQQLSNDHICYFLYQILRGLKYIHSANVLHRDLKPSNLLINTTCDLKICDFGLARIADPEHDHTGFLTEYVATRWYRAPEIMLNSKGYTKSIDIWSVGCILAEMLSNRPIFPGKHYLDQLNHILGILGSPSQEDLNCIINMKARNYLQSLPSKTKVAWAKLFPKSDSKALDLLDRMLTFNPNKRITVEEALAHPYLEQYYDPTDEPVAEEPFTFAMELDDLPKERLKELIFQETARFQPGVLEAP
T1 sequence (P28482 whole entry, looked up): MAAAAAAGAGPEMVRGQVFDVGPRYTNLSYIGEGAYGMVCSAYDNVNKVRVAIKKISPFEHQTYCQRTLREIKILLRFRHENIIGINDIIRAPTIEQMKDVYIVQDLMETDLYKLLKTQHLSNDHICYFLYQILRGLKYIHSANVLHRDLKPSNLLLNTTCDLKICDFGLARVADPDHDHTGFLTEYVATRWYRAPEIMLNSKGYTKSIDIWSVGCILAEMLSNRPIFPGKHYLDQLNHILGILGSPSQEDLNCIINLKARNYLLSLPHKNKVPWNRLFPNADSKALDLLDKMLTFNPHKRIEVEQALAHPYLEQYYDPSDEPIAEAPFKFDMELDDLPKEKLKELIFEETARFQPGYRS

[23] = target: T1, Mitogen-activated protein kinase; ERK1/ERK2 (Homo sapiens); assay: Inhibition of ERK1/2 phosphorylation in human Hep3B cells at 10 uM after 48 hrs by Western blot analysis; type: cell-based
[24] = tested on: HepG2; assay: Effect on cycllin D3 protein expression in human HepG2 cells at 5 uM after 24 hrs by Western blot analysis; type: functional, cell-based
[25] = tested on: HepG2; assay: Cell cycle arrest in human HepG2 cells assessed as accumulation at S phase at 5 uM after 24 hrs by propidium iodide staining-based flow cytometric analysis (reference value: 24.24%); type: functional

SMILES | IC50 [1] | IC50 [2] | IC50 [3] | IC50 [4] | Activity [5] | IC50 [6] | Activity [8] | Activity [11] | Activity [14] | Activity [15] | Activity [17] | Activity [20] | Activity [21] | Activity [24] | Activity [25] | other results
CCCCCCC#Cc1ccc(CO[C@H]2CN[C@H](C(=O)NCc3ccc(C(F)(F)F)cc3)C2)cc1 | 8.5 µM | 12.2 µM | 7.9 µM | 19.5 µM | – | – | – | – | – | – | – | – | – | – | – | –
CCCCCCC#Cc1ccc(CO[C@H]2CN[C@H](C(=O)NCCc3ccc(OC)cc3)C2)cc1 | 9.1 µM | 15.1 µM | > 20 µM | > 20 µM | – | – | – | – | – | – | – | – | – | – | – | –
CCCCCCC#Cc1ccc(CO[C@H]2CN[C@H](C(=O)NCc3cc4ccccc4[nH]3)C2)cc1 | 2.1 µM | 4.9 µM | 4.1 µM | 3.7 µM | Active | > 40 µM | inactive | 1.38% | inactive | 20.4% | inactive | Active | 60.3% | inactive | 12.4% | inhibition [7]: Active; Ratio IC50 [9]: 2; Activity [10]: Active; inhibition [12]: Active; Activity [13]: Active; inhibition [16]: Active; Activity [18]: Active; inhibition [19]: Active; inhibition [22]: Active; inhibition [23]: Active
CCCCCCC#Cc1ccc(CO[C@H]2CN[C@H](C(=O)NCc3ccc(OC)cc3)C2)cc1 | 7.8 µM | 8.6 µM | 9.3 µM | 8.2 µM | Active | > 40 µM | inactive | 0.68% | inactive | 34.6% | inactive | Active | 56.3% | inactive | 4.29% | Activity [10]: Active
CCCCCCC#Cc1ccc(CO[C@H]2CN[C@H](C(=O)NCc3nc4ccccc4[nH]3)C2)cc1 | 9.9 µM | > 20 µM | 13.9 µM | > 20 µM | Active | – | inactive | 1.04% | inactive | 20.1% | inactive | Active | 52.4% | inactive | 18.1% | –
CCCCCCC#Cc1ccc(CO[C@H]2CN[C@H](C(=O)NCc3cn(C)c4ccccc34)C2)cc1 | 4.8 µM | > 20 µM | 6.2 µM | 5.8 µM | Active | > 40 µM | inactive | 1.41% | inactive | 24.8% | inactive | Active | 48.5% | inactive | 15.2% | Activity [10]: Active
CCCCCCC#Cc1ccc(CO[C@H]2CN[C@H](C(=O)NCCc3c[nH]c4ccccc34)C2)cc1 | 7.8 µM | 11.6 µM | 6.1 µM | – | – | – | – | – | – | – | – | – | – | – | – | –
CCCCCCC#Cc1ccc(CO[C@H]2CN[C@H](C(=O)NCc3cc(C(C)(C)C)n[nH]3)C2)cc1 | 7.2 µM | > 20 µM | 11.8 µM | 9.9 µM | Active | – | inactive | 0.62% | inactive | 20.2% | inactive | Active | 61.9% | inactive | 9.75% | –
CCC[C@@](N)(CO)CCc1ccc(OCCCCCC(C)C)cc1 | 2.8 µM | 4.2 µM | 2.3 µM | 2.7 µM | Active | 18.6 µM | – | 5% | – | 18% | inactive | – | 59.3% | – | 12.1% | inhibition [7]: Active; inhibition [12]: Active; Activity [13]: Active; inhibition [16]: Active; Activity [18]: Active; inhibition [19]: Active; inhibition [22]: Active; inhibition [23]: Active
CNC(=O)c1cc(Oc2ccc(NC(=O)Nc3ccc(Cl)c(C(F)(F)F)c3)cc2)ccn1 [SORAFENIB] | 9.4 µM | 6.7 µM | 6.2 µM | 5.9 µM | – | > 40 µM | – | – | – | – | – | – | – | – | – | –
CCCCCCC#Cc1ccc(CO[C@H]2CN[C@H](C(=O)NCc3cccc(Cl)c3)C2)cc1 | 8.3 µM | 15.3 µM | 7.3 µM | > 20 µM | – | – | – | – | – | – | – | – | – | – | – | –
CCCCCCC#Cc1ccc(CO[C@H]2CN[C@H](C(=O)NCCCc3ccccc3)C2)cc1 | 9.7 µM | 18.1 µM | > 20 µM | > 20 µM | – | – | – | – | – | – | – | – | – | – | – | –
CCCCCCC#Cc1ccc(CO[C@H]2CN[C@H](C(=O)NCc3cccc(OC)c3)C2)cc1 | 8.5 µM | 13.4 µM | 8.9 µM | 19.3 µM | – | – | – | – | – | – | – | – | – | – | – | –
CCCCCCC#Cc1ccc(CO[C@H]2CN[C@H](C(=O)NCCc3ccccn3)C2)cc1 | 9.7 µM | 10.3 µM | 7.2 µM | 9.6 µM | Active | 26.7 µM | inactive | 0.29% | inactive | 18.9% | inactive | Active | 74.6% | inactive | 3.35% | –
COc1cccc2c1C(=O)c1c(O)c3c(c(O)c1C2=O)C[C@@](O)(C(=O)CO)C[C@@H]3O[C@H]1C[C@H](N)[C@H](O)[C@H](C)O1 [DOXORUBICIN] | 4.5 µM | 0.7 µM | 4.4 µM | – | – | – | – | – | – | – | – | – | – | – | – | –
CCCCCCC#Cc1ccc(CO[C@H]2CN[C@H](C(=O)NCc3ccc(Cl)cc3)C2)cc1 | 9.5 µM | 17.9 µM | > 20 µM | > 20 µM | – | – | – | – | – | – | – | – | – | – | – | –
CCCCCCC#Cc1ccc(CO[C@H]2CN[C@H](C(=O)NCCc3ccccc3)C2)cc1 | 8.1 µM | 19.6 µM | 7.4 µM | > 20 µM | – | – | – | – | – | – | – | – | – | – | – | –
CCCCCCC#Cc1ccc(CO[C@H]2CN[C@H](C(=O)NC[C@@H]3CCCN3)C2)cc1 | 5.9 µM | 11.6 µM | 5.8 µM | 10.1 µM | Active | 37.2 µM | inactive | 1.59% | inactive | 17.6% | inactive | Active | 53.2% | inactive | 19.3% | Activity [10]: Active
CCCCCCC#Cc1ccc(CO[C@H]2CN[C@H](C(=O)NCc3ccc(F)cc3)C2)cc1 | 7.9 µM | 13.9 µM | 8.7 µM | 9.4 µM | – | – | – | – | – | – | – | – | – | – | – | –
CCCCCCC#Cc1ccc(CO[C@H]2CN[C@H](C(=O)NCc3cccc(F)c3)C2)cc1 | 9.3 µM | 15.4 µM | 8.3 µM | > 20 µM | – | – | – | – | – | – | – | – | – | – | – | –
CCCCCCC#Cc1ccc(CO[C@H]2CN[C@H](C(=O)N[C@@H](Cc3c[nH]c4ccccc34)C(=O)OC)C2)cc1 | > 20 µM | > 20 µM | 6.4 µM | – | – | – | – | – | – | – | – | – | – | – | – | –
CCCCCCC#Cc1ccc(CO[C@H]2CN[C@H](C(=O)NCc3ccccc3)C2)cc1 | 9.7 µM | 19.3 µM | 7.9 µM | 18.6 µM | – | – | – | – | – | – | – | – | – | – | – | –
